Assay results taken from patent US8258295B2, “Triazine derivatives, compositions containing such derivatives, and methods of treatment of cancer and autoimmune diseases using such derivatives” (Prometic Biosciences Inc., priority 2007, dated 2012).

Legend:
[1] = test system: xenograft human prostate PC-3 tumor; experiment: Xenograft human prostate PC-3 tumor in nude mice; assay type: in vivo, mouse; settings: FIG. 10A; CD1 nu/nu mice; compound IV 5 mg/kg
Description: PC-3 cells were grown in RPMI-1640 containing 10% fetal bovine serum. […] The animals were then serially monitored by manual palpation for evidence of tumor. […] Serial tumor volume was obtained by bi-dimensional diameter measurements with calipers, using the formula 0.4 (a×b^2) where “a” was the major tumor diameter and “b” the minor perpendicular diameter.

[2] = test system: DA-3 breast tumor; experiment: Primary DA-3 breast tumor in mice; assay type: in vivo; settings: FIG. 4B; compound I IV 50 mg/kg, alone or with cyclophosphamide; up to day 35
[3] = test system: NZB×NZW mice; experiment: Systemic lupus erythematosus model, NZB×NZW mice; assay type: in vivo; settings: IV once a week from week 10 to week 46; FIG. 12
Text: New Zealand mice of the F1 hybrid cross NZB×NZW develop most of the autoimmune abnormalities seen in human SLE and die from SLE-like immune complex (IC)-mediated glomerulonephritis. The mice develop high titers of anti-DNA (double-strand and single-strand) and nuclear extract (NE) antibodies, as well as SLE-related clinical manifestations including leukopenia, thrombocytopenia, proteinuria, and glomerulonephritis. These mice develop anti-DNA antibodies after the age of three months, with a peak of anti-DNA antibody response occurring at seven months. Subsequently, the serum concentration of anti-DNA antibodies declines, presumably as a consequence of progressive uremia. The first serological manifestations of the disease occurs at about 150 days (i.e., five months). Their survival is evaluated at approximately 250 days.
Intravenous administration of compound or vehicle was undertaken once a week from week 10 to week 46.

[4] = test system: experimental autoimmune encephalomyelitis (EAE); experiment: PLP-induced experimental autoimmune encephalomyelitis (EAE) in SJL mice; assay type: in vivo
Description: The PLP-induced experimental autoimmune encephalomyelitis (EAE) mouse model serves as a model of multiple sclerosis. On day O, SJL mice were immunized with 75 μg of PLP (139-151) emulsified in Freund's complete adjuvant (200 μl emulsion per mouse s.c. divided among four sites) and with pertussis toxin (200 ng, i.p.). The i.p. injection of pertussis toxin was repeated on day 2. Compound V was administered orally once a day at 25 mg/kg and 50 mg/kg, starting at day 0 and until 30 days post immunization, six times a week. […] Clinical grading of symptoms was carried out according to the following scale: 0=no illness, 1=flaccid tail, 2=moderate paraparesis, 3=severe paraparesis, 4=moribound state, 5=death.

[5] = test system: DNBS-induced colitis; experiment: DNBS-induced colitis in CD1 mice; assay type: in vivo; settings: vs vehicle
Description: The 2,4-dinitrobenzene sulfonic acid (DNBS) induced experimental colitis mouse model serves as a model of inflammatory bowel disease. On day 0, CD1 mice were sensitized with DNBS by intra-colinic instillation of 0.1 ml of an ethanolic solution (30%) of DNBS (40 mg/ml). Compound V was administered orally once a day for four consecutive days at 25 mg/kg and 50 mg/kg, starting one hour after sensitization with DNBS. On the fourth day, mice were sacrificed and 8 cm of the distal colon was collected and opened longitudinally for macroscopic evaluation.

[6] = test system: PGE2 production; experiment: LPS-induced PGE2 production in J774A.1 cells (ELISA); assay type: cell-based; settings: Mus musculus, J774.A1, 24 hr, FIG. 11
Description: Effect of compounds on PGE2 production was measured by ELISA using J774A.1 cells stimulated by LPS. J774A.1 cells were cultured in the presence or absence of LPS and compound. Cells were cultured for 24 hr at 37° C. and thereafter the supernatants were collected for the determination of the concentration of PGE2 by ELISA as recommended by the manufacturer (GE Healthcare). Data was analyzed in Microsoft Excel software and the concentration of compound which inhibits 50% of PGE2 production (IC50) was calculated using Prism software.

[7] = test system: PC-3 cells; experiment: In vitro PC-3 cell adhesion to extracellular matrix components; assay type: cell-based, human; settings: different concentrations
Description: An in vitro cell adhesion assay was used to assess the effect of the compounds on cancer cell adhesion. Microtiter 96-well plates were coated for 1 hr at room temperature with […] of adhesive ligands previously diluted to 5 μg/ml for laminin, 10 μg/ml for MATRIGEL™ basement membrane matrix, or 10 μg/ml for collagen in PBS. The wells were blocked with a solution of 1% BSA in PBS (100 μl/well) for 1 hr at 37° C. Subconfluent cultures of PC-3 cells were incubated with a 5 μM solution of calcein-AM for 30 min at 37° C., and then free calcein-AM was washed out (30 min) by incubation of the PC-3 cells in media without calcein-AM. Calcein-AM-labeled cells were trypsinized, washed, and resuspended in adhesion buffer (RPMI-1640, 10% FBS supplemented with 1 mM of MgCl2). Labeled PC-3 cells were preincubated in absence or presence of compounds for 30 min and then a final volume of 100 μl of preincubated cells were allowed to attach at 37° C. in a humidified incubator for 15 min, 30 min, or 60 min at 37° C. Nonattached cells were removed by two washes with PBS and attached cells were lysed with 100 μl of a 1% Triton X-100 solution in PBS. Plates were read on a Tecan GENios Plus fluorescent reader with an excitation wavelength of 485 nm and an emission wavelength of 530 nm. The number of attached cells was calculated based upon standard curves. Nonspecific cell attachment (attachment to wells coated with BSA) was always less than 5%.

NCCCCCNc1nc(NCCc2ccc(S(N)(=O)=O)cc2)nc(Nc2cccc(F)c2)n1 [Compound II]
effect on PC-3 tumor growth [1]: cytostatic (no growth) effect up to day 42

NCCCCCNc1nc(NCCc2ccc(O)cc2)nc(Nc2cccc(F)c2)n1 [Compound I]
effect on DA-3 tumor growth [2]: weak inhibitory effect
mortality of NZB×NZW mice [3]: reduces the mortality

NCCCCCNc1nc(NCCc2ccc(O)cc2)nc(Nc2ccc(F)cc2)n1 [Compound V]
activity on clinical signs of EAE ([4]; oral 50 mg/kg, vs vehicle): significant activity
appearance of clinical signs of EAE ([4]; oral once a day, 25 mg/kg and 50 mg/kg, until 30 days, FIG. 23): reduces in a dose dependent manner the appearance of signs of EAE
DNBS-induced macroscopic damage area of the colon mucosal tissue ([5]; oral 25 mg/kg and 50 mg/kg, FIG. 22): strong and significant decrease
body weight ([5]; oral once a day for four days, 25 mg/kg and 50 mg/kg): weak but significant increase of body weight
IC50 [6]: 2 µM
PC-3 cell adhesion to laminin ([7]; FIG. 1A): inhibits PC-3 cells adhesion in a dose dependent fashion
PC-3 cell adhesion to MATRIGEL basement membrane matrix ([7]; FIG. 1B): inhibits PC-3 cells adhesion in a dose dependent fashion
PC-3 cell adhesion to collagen ([7]; FIG. 1C): inhibits PC-3 cells adhesion in a dose dependent fashion
